Experimental data reported in ChEMBL document CHEMBL1201862, “PubChem BioAssay data set” (2004).
The source made the active and inactive calls.

Assays:
[1] = cytotoxicity in HEK-293T cells, dose response, cytotoxicity control for TCR NF-kB inhibitor project, luminescence, T-cell screen hits (AID 489026); type: functional, cell-based;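 also: cells exposed to compound about 14 hours before the viability readout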
Coagulation factor XII = molecular target: T1, Coagulation factor XII (Homo sapiens, UniProt P00748); type: functional;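 also: activated factor XIIa alpha cleaving a fluorogenic AMC peptide substrate; inhibitor potency from loss of enzyme activity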
T1 sequence (P00748 whole entry): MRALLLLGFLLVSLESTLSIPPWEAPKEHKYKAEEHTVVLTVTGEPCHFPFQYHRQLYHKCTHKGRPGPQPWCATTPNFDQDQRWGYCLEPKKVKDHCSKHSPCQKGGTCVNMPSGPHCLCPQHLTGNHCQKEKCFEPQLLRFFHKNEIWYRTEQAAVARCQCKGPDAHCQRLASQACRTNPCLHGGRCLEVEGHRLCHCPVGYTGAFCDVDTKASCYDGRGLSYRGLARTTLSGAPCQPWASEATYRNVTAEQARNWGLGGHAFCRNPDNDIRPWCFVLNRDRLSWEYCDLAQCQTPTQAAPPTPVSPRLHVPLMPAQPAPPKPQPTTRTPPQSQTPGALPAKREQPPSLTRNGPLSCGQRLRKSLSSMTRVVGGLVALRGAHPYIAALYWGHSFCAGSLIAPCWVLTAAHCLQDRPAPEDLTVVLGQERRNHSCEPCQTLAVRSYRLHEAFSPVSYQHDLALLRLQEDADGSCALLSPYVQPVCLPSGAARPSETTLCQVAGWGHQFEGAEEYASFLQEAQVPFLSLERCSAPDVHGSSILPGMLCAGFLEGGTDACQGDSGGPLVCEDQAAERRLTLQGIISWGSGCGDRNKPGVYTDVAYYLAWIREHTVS

Cytochrome P450 3A4 = Cytochrome P450 3A4 (Homo sapiens, UniProt P08684); details: Potency;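 also: confirmatory qHTS run detecting inhibitors and substrates of CYP3A4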
Chain of Cytochrome P450 3A4 (P08684 whole entry): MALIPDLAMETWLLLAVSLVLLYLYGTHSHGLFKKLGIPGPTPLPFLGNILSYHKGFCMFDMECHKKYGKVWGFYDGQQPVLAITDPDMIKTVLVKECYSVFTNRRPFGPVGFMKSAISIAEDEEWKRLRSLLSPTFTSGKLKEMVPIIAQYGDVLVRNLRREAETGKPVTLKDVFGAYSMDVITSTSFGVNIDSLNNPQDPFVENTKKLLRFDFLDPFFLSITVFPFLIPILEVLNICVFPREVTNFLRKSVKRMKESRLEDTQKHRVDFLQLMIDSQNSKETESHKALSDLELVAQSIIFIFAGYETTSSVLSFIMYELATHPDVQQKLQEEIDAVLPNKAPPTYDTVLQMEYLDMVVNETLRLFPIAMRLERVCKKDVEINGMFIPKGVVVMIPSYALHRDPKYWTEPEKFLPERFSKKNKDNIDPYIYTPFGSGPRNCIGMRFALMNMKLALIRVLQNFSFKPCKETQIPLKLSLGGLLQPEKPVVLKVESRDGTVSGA

Estrogen receptor = molecular target: T2, Estrogen receptor (Homo sapiens, UniProt P03372);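 also: potency for inhibiting coactivator peptide recruitment to the receptor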
T2 sequence (P03372 whole entry): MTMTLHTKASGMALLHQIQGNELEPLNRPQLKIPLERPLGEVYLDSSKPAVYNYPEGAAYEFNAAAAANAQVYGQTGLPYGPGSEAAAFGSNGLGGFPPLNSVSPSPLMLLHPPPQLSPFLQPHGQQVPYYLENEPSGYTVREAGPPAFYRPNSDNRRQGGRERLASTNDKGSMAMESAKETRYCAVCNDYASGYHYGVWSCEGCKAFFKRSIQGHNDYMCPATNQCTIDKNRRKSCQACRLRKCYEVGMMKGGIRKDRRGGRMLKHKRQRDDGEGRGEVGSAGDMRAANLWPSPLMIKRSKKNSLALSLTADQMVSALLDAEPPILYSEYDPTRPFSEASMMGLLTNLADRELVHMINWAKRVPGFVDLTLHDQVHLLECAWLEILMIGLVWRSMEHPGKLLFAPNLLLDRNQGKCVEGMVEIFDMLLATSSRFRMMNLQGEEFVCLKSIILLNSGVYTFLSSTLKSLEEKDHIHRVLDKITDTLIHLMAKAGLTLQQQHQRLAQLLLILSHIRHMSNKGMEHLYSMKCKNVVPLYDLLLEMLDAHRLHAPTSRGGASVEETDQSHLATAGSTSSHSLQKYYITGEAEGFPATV

Estrogen receptor beta [2] = molecular target: T3, Estrogen receptor beta (Homo sapiens, UniProt Q92731);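 also: recombinant ER-beta bound to coactivator SRC1 peptide in presence of estradiol agonist; inhibitors block coactivator peptide binding and lower the FRET signal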
T3 sequence (Q92731 whole entry): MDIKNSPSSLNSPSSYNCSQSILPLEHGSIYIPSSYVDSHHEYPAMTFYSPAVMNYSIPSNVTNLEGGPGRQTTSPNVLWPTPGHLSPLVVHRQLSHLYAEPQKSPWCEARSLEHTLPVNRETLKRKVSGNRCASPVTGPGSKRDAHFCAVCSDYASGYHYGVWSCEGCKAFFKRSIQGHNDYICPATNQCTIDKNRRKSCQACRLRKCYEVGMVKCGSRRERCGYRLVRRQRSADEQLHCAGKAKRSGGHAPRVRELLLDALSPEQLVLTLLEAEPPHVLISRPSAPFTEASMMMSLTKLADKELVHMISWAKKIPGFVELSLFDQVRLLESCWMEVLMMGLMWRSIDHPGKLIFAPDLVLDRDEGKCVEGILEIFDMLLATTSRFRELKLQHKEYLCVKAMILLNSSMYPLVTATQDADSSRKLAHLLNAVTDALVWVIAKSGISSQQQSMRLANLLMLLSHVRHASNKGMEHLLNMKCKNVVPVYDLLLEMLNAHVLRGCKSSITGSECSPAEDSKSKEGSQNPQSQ

Estrogen receptor beta [3] = molecular target: T3, Estrogen receptor beta; assay: ERβ–SRC-3 coactivator interaction inhibitors, confirmation, orthogonal assay, biochemical, ELISA, streptavidin-HRP readout (AID 1060)
[4] = cytotoxicity in HEK-293T cells, dose response, cytotoxicity control for BCR NF-kB inhibitor project, luminescence, B-cell screen hits (AID 489021); type: functional, cell-based;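 also: HEK-293T cells carrying an NF-kB luciferase reporter; cells exposed to compound for about 14 hours before viability readout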
[5] = molecular target: T4, RNA-binding protein pos-1 (Caenorhabditis elegans, UniProt G5EF15); assay: inhibitors of POS-1/mex-3 RNA binding, dose response, biochemical, fluorescence polarization (AID 1964);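 also: purified POS-1 fused to maltose binding protein made in E. coli; potency of compounds blocking POS-1 binding to fluorescent RNA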
T4 sequence (G5EF15 whole entry): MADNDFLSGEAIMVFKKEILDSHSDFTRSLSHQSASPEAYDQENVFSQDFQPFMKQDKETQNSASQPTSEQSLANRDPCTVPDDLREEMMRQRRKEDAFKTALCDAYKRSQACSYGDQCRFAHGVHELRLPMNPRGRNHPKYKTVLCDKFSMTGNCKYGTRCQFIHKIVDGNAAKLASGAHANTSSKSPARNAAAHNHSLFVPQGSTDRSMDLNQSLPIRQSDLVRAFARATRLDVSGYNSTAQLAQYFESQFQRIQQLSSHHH

[6] = molecular target: T5, Zinc finger protein mex-5 (Caenorhabditis elegans, UniProt Q9XUB2); assay: MEX-5/TCR-2 RNA interaction inhibitors, dose response, biochemical, C. elegans, fluorescence polarization (AID 1960)
T5 sequence (Q9XUB2 whole entry): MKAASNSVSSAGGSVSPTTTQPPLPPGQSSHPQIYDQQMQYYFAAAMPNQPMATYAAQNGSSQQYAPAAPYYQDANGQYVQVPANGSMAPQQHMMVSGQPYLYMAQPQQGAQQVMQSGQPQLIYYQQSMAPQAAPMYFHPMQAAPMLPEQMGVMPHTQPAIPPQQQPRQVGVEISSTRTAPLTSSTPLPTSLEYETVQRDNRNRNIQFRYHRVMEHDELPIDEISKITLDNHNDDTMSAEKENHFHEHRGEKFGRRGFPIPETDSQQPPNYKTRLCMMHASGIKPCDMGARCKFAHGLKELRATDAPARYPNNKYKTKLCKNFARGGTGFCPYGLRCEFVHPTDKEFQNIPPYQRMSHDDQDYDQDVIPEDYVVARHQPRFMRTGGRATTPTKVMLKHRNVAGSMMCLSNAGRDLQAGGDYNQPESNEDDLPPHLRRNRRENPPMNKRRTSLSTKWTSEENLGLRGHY

[7] = molecular target: T6, Heat shock factor protein 1 (Mus musculus, UniProt P38532); assay: inhibition of MG132-induced HSE-luciferase signal, confirmation, cell-based, NIH3T3, luminescence, dose retest (AID 2382); type: functional;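 also: NIH3T3 fibroblasts with HSF1-driven luciferase reporter stressed by proteasome inhibitor MG132; luminescence from HSF1-driven luciferase expression after 8 hours of MG132 stress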
T6 sequence (P38532 whole entry): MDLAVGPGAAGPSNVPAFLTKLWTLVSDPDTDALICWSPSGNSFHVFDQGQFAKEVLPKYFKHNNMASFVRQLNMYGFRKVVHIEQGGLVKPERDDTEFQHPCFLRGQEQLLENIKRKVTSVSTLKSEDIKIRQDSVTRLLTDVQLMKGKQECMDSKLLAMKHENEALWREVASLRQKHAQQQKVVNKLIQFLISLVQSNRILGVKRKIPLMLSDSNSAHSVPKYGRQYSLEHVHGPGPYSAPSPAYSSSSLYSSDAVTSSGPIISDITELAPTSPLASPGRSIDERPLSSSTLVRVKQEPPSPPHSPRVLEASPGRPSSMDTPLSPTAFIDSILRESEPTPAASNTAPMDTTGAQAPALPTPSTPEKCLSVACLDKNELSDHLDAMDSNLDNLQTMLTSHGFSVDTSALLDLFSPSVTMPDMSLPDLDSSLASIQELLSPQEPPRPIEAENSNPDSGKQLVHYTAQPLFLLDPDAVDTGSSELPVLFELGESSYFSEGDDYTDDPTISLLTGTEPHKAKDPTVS

Nonstructural protein 1 = Nonstructural protein 1 (Influenza A virus, UniProt Q194T2); type: functional, Influenza A virus (A/California/07/2009(H1N1))
Chain of Nonstructural protein 1 (Q194T2 whole entry): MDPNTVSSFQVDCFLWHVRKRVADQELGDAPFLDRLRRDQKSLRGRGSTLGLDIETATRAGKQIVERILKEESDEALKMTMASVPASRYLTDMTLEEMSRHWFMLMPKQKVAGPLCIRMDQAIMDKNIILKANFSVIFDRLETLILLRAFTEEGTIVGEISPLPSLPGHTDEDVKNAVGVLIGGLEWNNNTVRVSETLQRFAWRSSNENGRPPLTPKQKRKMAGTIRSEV

cells = type: functional
[8] = Vero E6 cell cytotoxicity, dose response, cytotoxicity control for non-replicating M. tuberculosis project, secondary assay (AID 492998); type: functional, VeroE6; details: Vero C1008
[9] = molecular target: T7, Microphthalmia-associated transcription factor (Homo sapiens, UniProt O75030); assay: TRPM1 promoter luciferase signal decrease, dose response, MITF inhibitor project, cell-based, SK-MEL-5, cherry-picked, set 3 (AID 493073); type: functional
T7 sequence (O75030 whole entry): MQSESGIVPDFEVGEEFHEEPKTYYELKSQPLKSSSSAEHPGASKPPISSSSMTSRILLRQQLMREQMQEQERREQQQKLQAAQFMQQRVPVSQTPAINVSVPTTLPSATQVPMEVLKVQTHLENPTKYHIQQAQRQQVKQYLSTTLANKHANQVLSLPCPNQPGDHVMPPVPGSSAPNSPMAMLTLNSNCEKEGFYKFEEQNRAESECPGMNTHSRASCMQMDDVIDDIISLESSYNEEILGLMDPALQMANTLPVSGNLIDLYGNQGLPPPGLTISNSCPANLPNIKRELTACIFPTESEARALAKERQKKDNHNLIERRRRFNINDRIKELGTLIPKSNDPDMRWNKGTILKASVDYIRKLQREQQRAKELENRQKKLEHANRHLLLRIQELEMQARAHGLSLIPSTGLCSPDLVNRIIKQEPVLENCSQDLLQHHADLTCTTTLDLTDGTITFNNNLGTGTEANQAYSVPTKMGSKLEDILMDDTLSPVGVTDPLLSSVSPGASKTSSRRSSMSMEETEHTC

INS1 = assay: beta cell apoptosis inhibitors, cytokine rescue, dose response, luminescence, retest (AID 449756); type: functional, cell-based; details: Rattus norvegicus;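 also: cell death triggered by IL-1 beta plus TNF-alpha plus IFN-gamma mixture; protective hits raise ATP signal compared with cytokine alone wells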
[10] = THP-1 cell cytotoxicity, dose response, cytotoxicity control for non-replicating M. tuberculosis project (AID 489025); type: functional
[11] = NIH:OVCAR-3 ovarian cancer cell cytotoxicity, dose response, PAX8 inhibitor project, plate reader, dry powder samples (AID 743044); type: functional, cell-based
[12] = cytotoxicity in OVCAR8 ovarian cancer cells, dose response, PAX8 project, cell-based, plate reader, dry powder samples (AID 743197); type: functional; details: OVCAR-8
Paired box protein Pax-8 = Paired box protein Pax-8 (Homo sapiens, UniProt Q06710); assay: inhibitors of PAX8-driven TPO luciferase reporter, dose response, RMG-I cells, cherry-pick (AID 687027); type: functional, cell-based;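 also: luciferase reporter driven by Pax8 target thyroperoxidase promoter measured by SteadyGlo luminescence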
Chain of Paired box protein Pax-8 (Q06710 whole entry): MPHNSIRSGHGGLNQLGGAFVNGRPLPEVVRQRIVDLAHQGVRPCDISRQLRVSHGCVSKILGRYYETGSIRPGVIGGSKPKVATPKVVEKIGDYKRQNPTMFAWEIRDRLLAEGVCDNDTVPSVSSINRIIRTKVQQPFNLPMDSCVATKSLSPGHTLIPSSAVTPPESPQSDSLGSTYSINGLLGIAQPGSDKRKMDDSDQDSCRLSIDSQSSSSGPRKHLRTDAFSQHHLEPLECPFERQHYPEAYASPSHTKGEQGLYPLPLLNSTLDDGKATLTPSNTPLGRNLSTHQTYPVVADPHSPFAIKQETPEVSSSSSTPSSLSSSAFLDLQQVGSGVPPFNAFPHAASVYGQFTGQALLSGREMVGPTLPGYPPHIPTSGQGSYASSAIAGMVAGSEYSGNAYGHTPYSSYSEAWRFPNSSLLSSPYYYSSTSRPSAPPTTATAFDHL

[13] = IGROV1 ovarian cancer cell cytotoxicity, dose response, PAX8 inhibitor project, plate reader, dry powder samples (AID 743043); type: functional, cell-based; details: IGROV-1
[14] = HepG2 cell cytotoxicity, dose response, cytotoxicity control, cherry-picked samples (AID 1159577); type: functional, cell-based
[15] = P. falciparum Dd2 growth inhibitors, dose response, SYBR Green, cherry-picked samples (AID 1159567); type: functional, cell-based

Cc1noc(C)c1COc1ccc(CC(=O)NCc2ccccc2)cc1
IC50 [1]: > 80 µM (inactive)

O=C(Oc1ccc2ccc(=O)oc2c1)c1cccs1
IC50 (Coagulation factor XII): 7.8 µM (active)

Cc1ccc(N)c(N)c1
AC50 (Cytochrome P450 3A4): 25.1 µM (inconclusive)

CC1CCCN(C(=O)C2CCCN(S(=O)(=O)c3cccc4nsnc34)C2)C1 (configuration not stated)
IC50 (Coagulation factor XII): > 50 µM (inactive)

COc1ccc(Br)cc1CNC(=O)C1CCCN(c2nc3ccccc3o2)C1 (configuration not stated)
IC50 (Estrogen receptor): > 50 µM (not active)

CCCOC(=O)c1cc(-c2ccc(/C=C3/C(=O)N(C)C(=O)C(C#N)=C3C)o2)ccc1Cl
IC50 (Estrogen receptor beta [2]): > 50 µM (not active) | IC50 (Estrogen receptor beta [3]): 10.3 µM (not active)

CCc1ccc(/C=C2\SC(=S)N(CCC(=O)Nc3cc(C)on3)C2=O)cc1
IC50 [4]: > 80 µM (inactive)

COCCNC(=O)CSCc1nc(-c2ccc(SC)cc2)oc1C
IC50 [4]: > 80 µM (inactive)

CCOCC(=O)Nc1ccc(S(=O)(=O)Nc2ncccn2)cc1
IC50 (Coagulation factor XII): > 50 µM (inactive)

CC1(C)Oc2ccc(C(=O)NC3CCCC3)cc2N(CC(=O)NC2CCCC2)C1=O
IC50 (Coagulation factor XII): > 50 µM (inactive)

CC(=O)N1CC=CC1(CC(C)C)C(=O)NCC1CC1 (configuration not stated)
AC50 (Cytochrome P450 3A4): 31.6 µM (inconclusive)

COC(=O)c1cccc(C23CC4(C2)[C@H](CN(Cc2ccc(-c5ccccc5)cc2)[C@@H]4c2ccccc2)C3c2ccccc2)c1 (some centres not stated)
AC50 (Cytochrome P450 3A4): 15.8 µM (inconclusive)

O=C(CCCN1C(=O)/C(=C/c2ccccc2Cl)SC1=S)Nc1ccccn1
IC50 [4]: > 80 µM (inactive)

O=C(c1cccc(F)c1)N1CCN(C(=O)c2cc3ncc(Br)cn3n2)CC1
IC50 (Estrogen receptor beta [2]): 11.5 µM (active) | IC50 (Estrogen receptor): 33.4 µM (not active) | IC50 (Estrogen receptor beta [3]): 1.16 µM (not active)

CCN1CCc2nc(NC(=O)Cc3ccc4c(c3)OCCO4)sc2C1
IC50 (Estrogen receptor): 28.8 µM (active)

NC1=C(c2nc3ccccc3[nH]2)C(=O)CN1c1ccc(CC(=O)O)cc1
IC50 (Estrogen receptor beta [2]): 25.9 µM (active) | EC50 [5]: 5.25 µM (inconclusive) | EC50 [6]: 1.59 µM (active) | IC50 (Estrogen receptor beta [3]): < 0.023 µM (not active) | EC50 [7]: > 195 µM (not active)

O=C(Nc1nc(-c2ccccn2)cs1)c1ccc([N+](=O)[O-])o1
IC50 (Nonstructural protein 1): 11.7 µM (active) | IC50 (cells): 4.38 µM (active) | CC50 [8]: 4.61 µM (active) | AC50 [9]: 10.8 µM (active) | AC50 (INS1): 2.11 µM (active) | CC50 [10]: 9.27 µM (active)

C[C@H]1CCCCO[C@@H](CN(C)Cc2ccc(C(F)(F)F)cc2)[C@@H](C)CN([C@@H](C)CO)C(=O)c2cc(NS(=O)(=O)c3ccccc3)ccc2O1
AC50 [11]: 58.1 µM (active) | AC50 [12]: > 70 µM (inactive) | AC50 (Paired box protein Pax-8): 7.08 µM (active) | AC50 [13]: 47.8 µM (active)

C[C@H]1CCCCO[C@@H](CN(C)Cc2ccc(C(F)(F)F)cc2)[C@@H](C)CN([C@@H](C)CO)C(=O)c2cc(NC(=O)c3ccccc3)ccc2O1
AC50 [11]: 6.48 µM (active) | AC50 [12]: > 70 µM (inactive) | AC50 (Paired box protein Pax-8): 7.47 µM (active) | AC50 [13]: 29.4 µM (active)

O=C(Nc1cc(F)ccc1F)N1CC(=O)N2[C@H](CO)[C@@H](c3ccc(C#CC4CCCCC4)cc3)[C@@H]2C1
AC50 [14]: 40.3 µM (active) | AC50 [15]: 13.3 µM (active)

Cc1ccccc1S(=O)(=O)N1CCCCN2[C@H](CO)[C@H](c3ccc(-c4ccccc4)cc3)[C@H]2C1
AC50 [14]: 8.53 µM (active) | AC50 [15]: 1.05 µM (active)

COc1ccc2c(=O)c(-c3ccccc3)coc2c1
AC50 (Cytochrome P450 3A4): 39.8 µM (inconclusive)
